Laboratory results reported in PubChem BioAssay (NCI).
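Values below derive from 48-hour exposures of cells grown in 96-well plates, with endpoints linearly interpolated between the two concentrations bracketing the appropriate inhibition level. TGI: total growth inhibition.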

Legend:
Experiment in all cases: NCI anticancer screen, dose series, 48 h
SK-MEL-2 melanoma = test system: SK-MEL-2 melanoma
SK-MEL-5 melanoma = test system: SK-MEL-5 melanoma
OVCAR-5 ovarian = test system: OVCAR-5 ovarian
EKVX NSCLC = test system: EKVX NSCLC
K-562 leukemia = test system: K-562 leukemia
T-47D breast = test system: T-47D breast
SF-268 CNS = test system: SF-268 CNS
M14 melanoma = test system: M14 melanoma
U251 CNS = test system: U251 CNS
MDA-MB-231 breast = test system: MDA-MB-231 breast
NCI-H226 lung = test system: NCI-H226 lung
SN12C renal = test system: SN12C renal
BT-549 breast = test system: BT-549 breast

Row | SMILES | TGI (SK-MEL-2 melanoma) [µM] | TGI (SK-MEL-5 melanoma) [µM] | TGI (OVCAR-5 ovarian) [µM] | TGI (EKVX NSCLC) [µM] | TGI (K-562 leukemia) [µM] | TGI (T-47D breast) [µM] | TGI (SF-268 CNS) [µM] | TGI (M14 melanoma) [µM] | TGI (U251 CNS) [µM] | TGI (MDA-MB-231 breast) [µM] | TGI (NCI-H226 lung) [µM] | TGI (SN12C renal) [µM] | TGI (BT-549 breast) [µM]
1 | CC(=O)NC1C(OCc2ccccc2)OC(CO)C(O)C1OC(C)C(=O)NC(C)C(=O)NC(CCC(=O)NCCCCNc1c2ccccc2nc2cccc([N+](=O)[O-])c12)C(N)=O (stereo unspecified) | 0.393 | 0.119 | 1.65 | 0.322 | 12.5 | 0.961 | 0.316 | 12.5 | 0.303 | 0.118 | 0.43 | 0.313 | 0.531
2 | CCOC(=O)C(=CNc1ccc(NC2=NCC(C)S2)cc1)C(=O)OCC (stereo unspecified) | 50.7 | 34.5 | > 100 | > 100 | 4.69 | > 84.5 | > 100 | > 90.7 | > 100 | > 100 | > 100 | > 100 | 48.9
3 | O=C1C(Cl)C2(CC(/C=C/c3ccccc3)=NN2c2cccc(S(=O)(=O)O)c2)N1c1nc2ccccc2s1 (stereo unspecified) | 40.9 | 30.2 | 35.5 | 41 | 54.3 | 27.9 | 43.4 | 36 | 32.1 | 29.4 | 56.2 | 36.1 | 28.5
4 | O=C(N/N=C/c1ccc([N+](=O)[O-])cc1)Nc1ccc(C(=O)O)cc1 | 83.9 | 45.9 | > 100 | 77 | > 100 | 49.5 | > 100 | > 100 | > 100 | > 100 | 85.8 | > 100 | > 100
5 | COC(=O)[C@]1(NC(=O)c2ccccc2)C[C@H]1C=O | > 100 | > 100 | > 100 | > 100 | > 100 | > 100 | > 100 | > 100 | > 100 | > 100 | > 100 | > 100 | > 100
6 | O=C(NC1CCN(Cc2ccccc2)CC1)c1ccc(I)cc1 | > 100 | > 100 | > 100 | > 100 | > 100 | > 100 | > 100 | > 100 | > 100 | > 100 | > 100 | > 100 | > 100
7 | O=[N+]([O-])c1ccc(C(=S)Nc2ccccc2)o1 | 7.95 | 23.2 | 17.6 | 12.5 | 6.28 | 95.1 | 13 | 14 | 3.05 | 8.06 | 15 | 6.82 | 14.1
8 | N#Cc1c2c(c(N)oc1=O)C(c1ccccc1)CC(=O)N2 (stereo unspecified) | > 100 | > 100 | > 100 | > 100 | > 100 | > 100 | > 100 | > 100 | > 100 | > 100 | > 100 | > 100 | > 100
9 | Cc1cn(CCCCC2=NCCCN2)c(=O)[nH]c1=O | > 35.9 | > 38.1 | > 42.5 | > 42 | > 37.2 | > 23.9 | > 24.2 | > 32.4 | > 46.4 | > 42 | > 81.3 | > 100 | > 20.5
10 | C[N+]12C=CC=C1C(N1CCCC1)c1scc(-c3ccccc3)c12 (stereo unspecified) | 42.3 | 27.6 | > 100 | > 100 | 29.1 | 78.4 | > 100 | > 100 | > 100 | > 100 | 28.9 | 70 | > 100
11 | CCOC(=O)C1(C(=O)OCC)[C@@H](c2ccccc2)C2=NO[C@@H]3CCC[C@H]1[C@H]23 | > 100 | > 100 | > 100 | > 100 | > 100 | > 100 | > 100 | > 100 | > 100 | > 100 | > 100 | > 100 | > 100
12 | CC1(c2nc3ccccc3[nH]2)CCC(C(=O)O)C(C)(C)O1 (stereo unspecified) | > 100 | > 100 | > 100 | > 100 | > 100 | > 100 | > 100 | > 100 | > 100 | > 100 | > 100 | > 100 | > 100
